Assay results as given in patent publication US12662530B2, “Anti-ADM-antibodies binding to the free N-terminus for accelerated transition of ADM-Gly to bio-ADM in patients with ADM-Gly/ bio-ADM ratio above a threshold and combination with vitamin C” (SphingoTec GmbH, priority 2020, dated 2026).
Read-outs that look alike come from different tables or passages of the source.

Assays:
MR-proADM/bio-ADM ratio = MR-proADM/bio-ADM ratio in samples of healthy subjects after administration; assay type: in vivo, human; settings: Table 5, n 18
Method: (§1) Critically ill subjects were from the AdrenOSS-I cohort described in example 7. Healthy and healthy HAM8101 treated subjects were from the study cohort described in example 6 (Geven et al. 2017. Intensive Care Med Exp 5 (Suppl 2): 0427). Bio-ADM was determined as described by Weber et al., 2017. ADM-Gly was determined as described in example 4.
The same patients as described in example 8 were also analysed for their MR-proADM/ADM-NH2 ratio.

native PAM = assay: ADM maturation activity (AMA) of native PAM in Li-Heparin plasma with antibody and varying L-ascorbate; assay type: biochemical, human; settings: FIG. 15
Method: A serial antibody-dilution with concentrations of 0, 5, 10, 50, 100, 500 and 3000 μg/mL per well, respectively (in 20 μl) were pipetted into 96-well micro-titer plates. Then 160 μl PAM reaction buffer (100 mM Tris-HCl, 6.25 μM CuSO4, 62.5 μM amastatin, 250 μM leupeptin, 36 ng/mL ADM-Gly) with varying L-ascorbate concentrations was added to the wells and incubated for 15 min. Afterwards the reaction was started by addition of 20 μl of Li-Heparin plasma, containing native PAM Immediately after addition of plasma, 100 μl from each well were removed and inactivated by addition of EDTA (20 mM final concentration) to generate a t=0 minutes reaction point. Inactivated and non-inactivated samples were incubated for 40 minutes at 37° C. and the reaction in non-inactivated samples was stopped as described above. For quantification of produced ADM-NH2 the Sphingotest® bio-ADM Kit (Weber et al. 2017) was utilized according to manufacturer's manual. The ADM maturation activity (AMA) was calculated according to equation 1 (DF=dilution factor of sample matrix).

[1] = test system: ADM-Gly to bio-ADM conversion; assay type: in vivo; settings: for ADM-Gly/bioADM Ratio: Table 4, n 9
Description: ADM-Gly was quantified as based on Weber et al. (Weber et al. 2017. JALM 2(2): 222-233) for bioactive ADM with the following modifications: the tracer-antibody used for ADM-Gly detection, labelled with MACN-acridinium-NHS, was directed to the C-terminal glycine of ADM-Gly. The assay was calibrated with synthetic ADM-Gly. […] All determined ADM-Gly concentrations were corrected for cross-reactivity as follows: For each ADM-Gly quantification additional quantification of bio-ADM in corresponding samples was performed using the Sphingotest® bio-ADM immunoassay. The corresponding bio-ADM values were used to determine the signal (RLU) generated with the antibody directed to C-terminal glycine of ADM on a bio-ADM calibration curve. The determined signal (RLU) was used to calculate the false-positive ADM-Gly concentration (pg/mL) using the ADM-Gly calibration curve. This concentration was subtracted from the initially determined ADM-Gly concentration. […]
as §1

human native PAM = assay: Native human PAM activity in human serum with NT- and MR-anti-ADM antibodies; assay type: biochemical; settings: antibody 100 μg/mL; FIG. 9
Method: Human serum was used as source of human native PAM. Each sample (20 μl) was diluted two-fold in 100 mM Tris-HCl in duplicate. The amidation reaction was initiated by addition of 160 μl of NT-ADM antibodies (HAM8101, AK1373, AK1388, AK1398 or AK1434) or MR-ADM antibodies (ADM43, ADM38, ADM41, ADM2901, ADM2902 and ADM2903) containing PAM-reaction buffer (100 mM Tris-HCl, pH 7.5, 6.25 μM CuSO4, 2.5 mM Ascorbate, 125 μg/mL Catalase, 62.5 μM Amastatin, 250 μM Leupeptin, and 36 ng/mL synthetic 1-53 Adrenomedullin-Gly as substrate). The final antibody concentrations were 100 μg/mL, respectively. Afterwards, 100 μl of each individual reaction of duplicated samples were combined and transferred into 20 μl of 200 mM EDTA to terminate the amidation reaction and thus to generate a t=0 minutes reaction time-point followed by incubation at 37° C. for 40 minutes. Afterwards the non-terminated reactions were stopped with 10 μl of 200 mM EDTA. To determine the PAM activity in NT-ADM antibody containing samples, bio-ADM was quantified in each reaction using the Sphingotest® bio-ADM immunoassay (Weber et al. 2017, supra). The MR-ADM antibody containing reaction was transferred to an alternative bio-ADM assay (description below). A control reaction without antibodies was measured in both bio-ADM assays. For each sample the difference between t=40 min and t=0 min bio-ADM concentration was calculated. […]

native human plasma PAM = assay: Formation of bio-ADM by native human PAM in Li-Heparin plasma, with and without exogenous ADM-Gly; assay type: biochemical; settings: without addition of exogenous ADM-Gly; HAM8101 300 μg/mL; 90 minutes
Method: In a further experiment we investigated the formation of bio-ADM from ADM-Gly by native human plasma PAM and the influence of N-terminal- and mid-regional anti-adrenomedullin antibodies.
Human Li-Heparin plasma (pool of 3 specimen) was used as source of human native PAM. The amidation reaction was performed in a total volume of 120 μl at 37° C. 96 μl of plasma were spiked with either HAM8101 (375 μg/mL final concentration) or ADM-Gly (5 ng/mL final concentration) or with both. As control, equal volumes of 100 mM Tris-HCl, pH 7.5 were added to untreated plasma. The prepared samples were allowed to chill for 15 minutes at room temperature. The amidation reaction was started by addition of 24 μl of PAM-reaction buffer resulting in final concentrations of 2 mM L-Ascorbate and 5 μM CuSO4, respectively. The final concentrations of HAM8101 and ADM-Gly were 300 μg/mL and 4 ng/mL, respectively. The reaction was allowed to proceed for 90 minutes at 37° C. After 0 min, 30 min, 60 min and 90 min of incubation, the reaction was stopped by addition of 20 mM EDTA (final concentration). The concentration of bio-ADM in the reaction sample was quantified using the Sphingotest® bio-ADM immunoassay as described recently (Weber et al. 2017. JALM 2(2): 222-233).

Substance: HAM8101: humanized N-terminal anti-ADM antibody, heavy chain SEQ ID No. 35, light chain SEQ ID No. 36
- MR-proADM/bio-ADM ratio (MR-proADM/bio-ADM ratio; Healthy HAM8101 treated (1 h)): 44.6
- MR-proADM/bio-ADM ratio (MR-proADM/bio-ADM ratio; Healthy HAM8101 treated (4 h)): 42.4
- increase of the bio-ADM formation of PAM (native PAM; 100 μg/mL of HAM8101 in the amidation assay, Li-Heparin plasma): 40%
- effect on the amidation for each ascorbate concentration assayed (native PAM; HAM8101 0-3000 μg/mL): concentration dependent positive effect on the amidation
- ADM-Gly/bioADM Ratio ([1]; Healthy HAM8101 treated (1 h)): 0.61
- ADM-Gly/bioADM Ratio ([1]; Healthy HAM8101 treated (4 h)): 0.33
- ratio of ADM-Gly/bio-ADM ([1]; group 1 (0.5 mg/kg), after 1 h, FIG. 12): approximately 0.75
- ratio of ADM-Gly/bio-ADM ([1]; group 1 (0.5 mg/kg), after 24 hours): No further change
- ratio of ADM-Gly/bio-ADM ([1]; group 1 (0.5 mg/kg), four hours after administration): approximately 0.38
- ratio of ADM-Gly/bio-ADM ([1]; group 2 (2 mg/kg), after 1 h): ~0.63
- ratio of ADM-Gly/bio-ADM ([1]; group 2 (2 mg/kg), after 24 hours): No further change
- ratio of ADM-Gly/bio-ADM ([1]; group 2 (2 mg/kg), four hours after administration): ~0.25
- ratio of ADM-Gly/bio-ADM ([1]; group 3 (8 mg/kg), after 1 h): ~0.43
- ratio of ADM-Gly/bio-ADM ([1]; group 3 (8 mg/kg), after 24 hours): approximately 0.5
- ratio of ADM-Gly/bio-ADM ([1]; group 3 (8 mg/kg), four hours after administration): approximately 0.38
- influence on amidating activity compared within the tested antibodies of the same region (human native PAM): showed the strongest influence
- change in bio-ADM concentration (native human plasma PAM): No change in bio-ADM concentration
